The text below walks through data of patent US10966425B2, “Fungicidal compositions” (SYNGENTA PARTICIPATIONS AG, priority 2016, dated 2021).

The subject of data set [1] is Pyrenophora teres. The experiment in a line: Pyrenophora teres / barley / leaf disc preventative (net blotch). The format is in vivo. As to conditions: 200 ppm, barley leaf segments cv. Hasso, 5-7 days after application. Here is the method:
Barley leaf segments cv. Hasso are placed on agar in a multiwell plate (24-well format) and sprayed with the formulated test compound diluted in water. The leaf segments are inoculated with a spore suspension of the fungus 2 days after application. The inoculated leaf segments are incubated at 20° C. and 65% rh under a light regime of 12 h light/12 h darkness in a climate cabinet and the activity of a compound is assessed as disease control compared to untreated when an appropriate level of disease damage appears in untreated check leaf segments (5-7 days after application).

Broadly, the melting point is the temperature, or range, at which the solid turns liquid. `Cc1cccc2c1ncn2C1=NC(C)(C)C(F)(F)c2ccccc21` gave a melting point of 142 to 149 °C.

The compound `Cc1cccc2c1ncn2C1=NC(C)(C)C(C)(C)c2c(F)cccc21` [Compound E-1] registered a melting point of 45 to 46 °C.

`CC1(C)N=C(n2cnc3c(Br)cccc32)c2cccc(F)c2C1(C)C` [Compound E-4] had a melting point of 48 to 49 °C.

For the compound `Cc1cccc2c1ncn2C1=NC(C)(C)C(=O)c2ccccc21` [Compound E-10], the melting point was 123 to 125 °C.

Take `CC(C)c1cccc2c1ncn2C1=NC(C)(C)C(C)(C)c2c(F)cccc21` [Compound E-12]: the melting point is 113 to 114 °C.

With `C=Cc1cccc2c1ncn2C1=NC(C)(C)C(C)(C)c2c(F)cccc21` [Compound E-13], the melting point was 70 to 71 °C.

Compound `CCc1cccc2c1ncn2C1=NC(C)(C)C(C)(C)c2c(F)cccc21` [Compound E-14] returned a melting point of 87 to 88 °C.

`Cc1cccc2c1ncn2C1=NC(C)(C)C(C)(C)c2ccccc21` [Compound E-16]: the “control of Pyrenophora teres” value in data set [1] is “at least 80%”.

On to `CC1(C)N=C(n2cnc3c(Cl)cccc32)c2cccc(F)c2C1(C)C` [Compound E-17], for which the melting point lay within 50 to 51 °C.

Compound `COC(=O)c1cccc2c1ncn2C1=NC(C)(C)C(C)(C)c2c(F)cccc21` [Compound E-24] registered a melting point of 178 to 179 °C.

For the compound `Cc1ccc2c(ncn2C2=NC(C)(C)C(=O)c3ccccc32)c1C` [Compound E-25], the melting point is 159 to 161 °C.

Compound `Cc1cccc2c1C(=O)C(C)(C)N=C2n1cnc2c(C)cccc21` [Compound E-26] yielded a melting point of 96 to 101 °C.

`Cc1cccc2c1C(=O)C(C)(C)N=C2n1cnc2c(C)c(C)ccc21` [Compound E-27] gave a melting point of 145 to 149 °C.

On to `Cc1c(F)ccc2c1ncn2C1=NC(C)(C)C(F)(F)c2ccccc21` [Compound E-32], for which the melting point is 118 to 121 °C.

`Cc1cccc2c1ncn2C1=NC(C)(C)C(=O)c2cc(Cl)ccc21` [Compound E-34] displayed a melting point of 129 to 133 °C.

`Cc1c(F)ccc2c1ncn2C1=NC(C)(C)C(=O)c2cc(Cl)ccc21` [Compound E-35]: the melting point was in the range of 133 to 136 °C.

The compound `Cc1ccc2c(ncn2C2=NC(C)(C)C(=O)c3cc(Cl)ccc32)c1C` [Compound E-36] displayed a melting point of 196 to 199 °C.

`CC1(C)N=C(n2cnc3c(Cl)cccc32)c2ccc(Cl)cc2C1(F)F` [Compound E-37] gave a melting point of 197 to 200 °C.

Regarding `Cc1cccc2c1ncn2C1=NC(C)(C)Cc2c(Br)cccc21` [Compound E-38], the melting point lay in the range of 52 to 54 °C.

The compound `CC1(C)N=C(n2cnc3cc(Cl)c(Cl)cc32)c2cccc(F)c2C1(C)C` [Compound E-39] gave a melting point of 126 to 127 °C.

The compound `Cc1c(Br)ccc2c1ncn2C1=NC(C)(C)C(C)(C)c2c(F)cccc21` [Compound E-41] displayed a melting point of 122 to 124 °C.

`Cc1c(Cl)ccc2c1ncn2C1=NC(C)(C)C(C)(C)c2c(F)cccc21` [Compound E-42] displayed a melting point of 102 to 103 °C.

`Cc1cccc2c1ncn2C1=NC2(CCC2)Cc2ccccc21` [Compound E-43]: the melting point fell in the range of 132 to 133 °C.

The compound `Cc1cccc2c1ncn2C1=NC(C)(C)C(C)(C)c2c1ccc(Cl)c2F` [Compound E-45] had a melting point of 147 to 151 °C.

Compound `Cc1cccc2c1ncn2C1=NC(C)(C)C(C)(C)c2c1ccc(F)c2F` [Compound E-46] registered a melting point of 122 to 125 °C.

Regarding `CC1(C)N=C(n2cnc3c(F)c(F)ccc32)c2cccc(F)c2C1(C)C` [Compound E-50], the melting point fell in the range of 112 to 114 °C.

For `CC1(C)N=C(n2cnc3c4c(ccc32)CCC4)c2cccc(F)c2C1(C)C` [Compound E-51], the melting point is 177 to 178 °C.

Compound `Cc1ccc2c(ncn2C2=NC(C)(C)Cc3cc(F)ccc32)c1C` [Compound E-57] had a melting point of 143 to 145 °C.

With `Cc1ccc2c(ncn2C2=NC3(CC3)C3(CC3)c3ccccc32)c1C` [Compound E-58], the melting point is 141 to 143 °C.

Compound `Cc1cccc2c1ncn2C1=NC(C)(C)C(C)(C)c2c(F)cccc21` [X.011] had a melting point of 118 to 120 °C.
